{"source": "patent US8975275B2", "about": "“Use of chemotherapeutic agents” (priority 1999, dated 2015)", "type_in_all_cases": "in vivo, human", "key": {"[1]": {"test_system": "dentin wounds", "test": "Prophylaxis of dentin wounds (patient cases)", "excerpt": "For this reason, after removal of the carious regions, the compounds of formula (I) or formula (II) are applied to the prepared cavities and rubbed in. Said compounds are applied in the form of solutions, gels or suspensions to form a local depot with an antibiotic action before the reliner is placed on and/or in the fundament of the inlays, onlays, crowns or bridges. […] A further advantage is that the tubule structure is not modified or denatured here, as is frequently the case with the current procedures using dentin protecting agents and impregnating agents. The microbe-free conditions achieved in this way have a permanent beneficial effect on prosthetic procedures since dentin hypersensitivities and subsequently secondary caries are effectively avoided.\nThe application of the compounds of formula (I) or formula (II) can either replace or complement the disinfecting treatment with hydrogen peroxide. The compounds of formula (I) or formula (II) can be applied in dissolved form or as a gel, optionally in the presence of solubilizers to promote a deep penetration of the chemotherapeutic agents into the dentinal tubules. Gels are used in the provisional care of dentin wounds and solutions are preferably used before the definitive fixing of e.g. crowns and bridges. The solutions or gels of the chemotherapeutic agents used are applied to the prepared dentin surfaces and gently rubbed in. Residues are then removed, for example with a cotton wool swab or air jet. Inlays, onlays, crowns or bridges can then be fixed. The compounds of formula (I) or formula (II) can be used in concentrations of 0.005 mg/ml to 200 mg/ml. Preferred concentrations are those ranging from 0.5 mg/ml to 150 mg/ml and particularly preferred concentrations are those ranging from 10 to 100 mg/ml."}, "[2]": {"test_system": "osseomucosal wounds", "test": "Topical treatment of osseomucosal wounds (patient cases)", "excerpt": "Application is effected by flushing and/or by means of strip inserts impregnated with compounds of formula (I) or formula (II). They are to be used for example for postoperative infections following dentosurgical interventions (extractions). For this purpose the gel containing the compound of formula (I) or formula (II) is syringed directly into the extraction wound or onto a collagen sponge which remains in the extraction wound. The wound is closed for about half an hour by biting on a tampon. Prophylactic applications have been particularly successful after the extraction of teeth with focal infections, Liquid forms of administration suitable for flushing fistulae are those containing the compounds of formula (I) or formula (II) in concentrations of 0.005 mg/ml to 250 mg/ml. Preferred concentrations are those ranging from 0.5 to 100 mg/ml, Forms suitable for coating strips are gels containing the compounds of formula (I) or formula (II), as well as aqueous solutions or suspensions. These applications can contain the compounds of formula (I) or formula (II) in concentrations of 0.005 mg/ml to 200 mg/ml. Preferred concentrations for solutions are those ranging from 0.1 to 50 mg/ml Gelatinous forms of administration in concentrations of 25-150 mg/ml are preferred in the case of strip inserts."}, "[3]": {"test_system": "infected root canal and periapical region", "test": "Topical treatment of the infected root canal and the periapical region (patient cases)", "experimental": "In the clinical use of the compounds of formula (I) or formula (II), the pulp residues are removed first. The preparation of the canals is carried out with minimum discomfort for the patient. The canals are then flushed with hydrogen peroxide, Other methods of disinfection can be omitted. The compounds of formula (I) or formula (II), in a liquid form of administration, are then introduced into the toot canal under pressure using a cannula. The compounds of formula (I) or (II) are then injected in dissolved form or in a gelatinous form of administration. The root canal is subsequently occluded in the crown region, first with a cotton wool plug and then with zinc phosphate cement to seal the margins. If the canals are not gangrenous, the antibiotics remain in the canals for 3 days. […] The compounds of formula (I) or formula (II) can be used in concentrations of 0.005 mg/ml to 200 mg/ml.\nIn this application technique, which is known from intraligamental anaesthesia, the tooth is completely flooded with the antibacterial solution of the compounds of formula (I) or formula (II) in the entire root region."}, "[4]": {"test_system": "pulpitis due to carious diseases", "test": "Topical treatment of pulpitis due to carious diseases (patient cases)", "excerpt": "This is of great importance because, for example in the case of caries profunda, it is always necessary to decide whether softened residual dentin can be left over the pulp. By virtue of complete elimination of the microbes present, there is now a novel method of treatment wherein a thin softened dentin covering can be left if the compounds of formula (I) or formula (II) are used. This method of treatment makes it possible to free infected dentin layers of microbes and to stop pulp infections. This means that pain reactions are eliminated and pulp infections are to a certain extent cured. The pulp remains vital. The topical application of the compounds of formula (I) or formula (II) followed the removal of the carious dentin. The compounds of formula (I) or formula (II) were applied for example in aqueous solution, in a form of gelatinous consistency or on an inert carrier, for example by means of a cotton wool plug. The overlying cavity was occluded with a cement to seal the margins. The cotton wool plug was left in the cavity for three to six days. The compounds of formula (I) or formula (II) can be used in concentrations of 0.005 mg/ml to 200 mg/ml, Preferred concentrations are those ranging from 0.5 mg/ml to 150 mg/ml and particularly preferred concentrations are those ranging from 10 to 100 mg/ml."}}, "note": "Counter-ions that a name gives are not always drawn."}
{"smiles": "COc1c(N2C[C@@H]3CCCN[C@@H]3C2)c(F)cc2c(=O)c(C(=O)O)cn(C3CC3)c12", "note": "[moxifloxacin hydrochloride, 1-cyclopropyl-6-fluoro-1,4-dihydro-8-methoxy-7-[(4aS,7aS)-octahydro-6H-pyrrolo[3,4-b]pyridin-6-yl]-4-oxo-3-quinolinecarboxylic acid]", "values": [{"measurement": "clinical finding at check-up", "setting": "[1]; Patient A 2.1, teeth 33 and 36 prepared for bridge, solution 25 mg/ml to cavity, check-up after 3 weeks", "result": "patient symptom-free"}, {"measurement": "clinical finding at check-up", "setting": "[1]; Patient A 2.2, solution 50 mg/ml, after final filling, check-up after 4 weeks", "result": "teeth vital, patient symptom-free"}, {"measurement": "clinical finding at check-up", "setting": "[1]; Patient A 2.2, teeth 22, 23, 24, smear with solution 50 mg/ml, check-up after 2 weeks", "result": "teeth symptom-free"}, {"measurement": "clinical finding at check-up", "setting": "[1]; Patient A 2.3, teeth 14-17 cervical erosions, smear with solution 50 mg/m, check-up after 3 weeks", "result": "patient symptom-free"}, {"measurement": "clinical finding at check-up", "setting": "[1]; Patient A 2.4, teeth 11, 12, 21, 22 prepared for crowns, smear with solution 25 mg/ml, check-up after 3 weeks", "result": "patient symptom-free"}, {"measurement": "clinical finding at check-up", "setting": "[1]; Patient A 2.5, tooth 44, smear with solution 25 mg/ml, check-up after 9 days", "result": "patient symptom-free"}, {"measurement": "clinical finding at check-up", "setting": "[2]; Patient C 1, wound care after extraction, depot of gel 50 mg/ml by gauze strip, check-up after 3 days", "result": "patient symptom-free, good wound margin adaptation"}, {"measurement": "clinical finding at check-up", "setting": "[2]; Patient C 2, regio 36 fistulation, incision, flushing solution 50 mg/ml + strip insert gel 50 mg/ml, check-up after 3 days", "result": "patient symptom-free, good rapid healing process"}, {"measurement": "clinical finding at check-up", "setting": "[2]; Patient C 3, teeth 26 and 46 apical granulomas, extraction (osteotomy), gauze with gel 50 mg/ml, check-up after 2 days", "result": "patient symptom-free"}, {"measurement": "clinical finding at check-up", "setting": "[2]; Patient C 4, gauze with gel 50 mg/ml, check-up after one week", "result": "good wound margin adaptation, patient symptom-free"}, {"measurement": "clinical finding at check-up", "setting": "[2]; Patient C 4, tooth 48 osteotomy, gauze with gel 50 mg/ml, check-up after 2 days", "result": "slight wound pain, no postoperative oedema"}, {"measurement": "clinical finding at check-up", "setting": "[2]; Patient C 5, after root canal filling, check-up after 3 weeks", "result": "patient symptom-free"}, {"measurement": "clinical finding at check-up", "setting": "[2]; Patient C 5, tooth 34 pulpitis purulenta, fistulation, flushing solution 50 mg/ml + canal insert and gauze insert gel 50 mg/ml, check-up after 3 days", "result": "good healing process, patient symptom-free"}, {"measurement": "clinical finding at check-up", "setting": "[2]; Patient C 6, tooth 36 wound care after extraction, depot of gel 50 mg/ml by gauze strips, check-up after 3 days", "result": "patient symptom-free, good wound margin adaptation"}, {"measurement": "clinical finding at check-up", "setting": "[2]; Patient C 7, tooth 22 root tip resection due to cyst, strip insert gel 50 mg/ml, check-up after 3 days", "result": "patient symptom-free, good healing process"}, {"measurement": "clinical finding at check-up", "setting": "[2]; Patient C 9, same combined treatment, after root canal filling, check-up after 2 weeks", "result": "patient symptom-free"}, {"measurement": "clinical finding at check-up", "setting": "[2]; Patient C 9, tooth 14 pulpitis purulenta, fistulation, moxifloxacin hydrochloride solution 25 mg/ml flushing + grepafloxacin gel 25 mg/ml canal insert + moxifloxacin hydrochloride gel 25 mg/ml gauze insert, check-up after 6 days", "result": "patient symptom-free"}, {"measurement": "clinical finding at check-up", "setting": "[3]; Patient A 3.11, tooth 34 apical periodontitis, fistula, root canal insert gel 100 mg/ml, check-up after 10 days", "result": "patient symptom-free"}, {"measurement": "clinical finding at check-up", "setting": "[3]; Patient A 3.12, tooth 44 fistulation, gangrenous, solution 50 mg/ml by paper point + intraligamental injection 50 mg/ml, check-up after 8 days", "result": "patient symptom-free"}, {"measurement": "clinical finding at check-up", "setting": "[3]; Patient A 3.15, tooth 31 apical periodontitis due to gangrene, solution 50 mg/ml + gel 50 mg/ml + intraligamental injection 50 mg/ml, check-up after 9 days", "result": "patient symptom-free, canal odourless"}, {"measurement": "clinical finding at check-up", "setting": "[3]; Patient A 3.21, repetition of flushing and insert, check-up after 10 days", "result": "patient symptom-free"}, {"measurement": "clinical finding at check-up", "setting": "[3]; Patient A 3.21, tooth 22 fistula, gangrenous, flushing solution 50 mg/ml + gel 50 mg/ml + intraligamental injection 50 mg/ml, check-up after 8 days", "result": "patient still not fully symptom-free, canal still had very slight odor"}, {"measurement": "clinical finding at check-up", "setting": "[3]; Patient A 3.3, tooth 11 apical periodontitis due to gangrene, solution 50 mg/ml + gel 50 mg/ml + intraligamental injection 50 mg/ml, check-up after 3 days", "result": "patient symptom-free, canal odourless"}, {"measurement": "clinical finding at check-up", "setting": "[3]; Patient A 3.4, tooth 11 apical periodontitis, not gangrenous, root canal insert gel 50 mg/ml, check-up after 3 days", "result": "patient symptom-free"}, {"measurement": "clinical finding at check-up", "setting": "[3]; Patient A 3.5, tooth 35 apical periodontitis due to gangrene, solution 50 mg/ml + gel 50 mg/ml + intraligamental injection 50 mg/ml, check-up after 7 days", "result": "no gangrenous odour, no bite discomfort"}, {"measurement": "clinical finding at check-up", "setting": "[3]; Patient A 3.6, tooth 36 apical periodontitis due to gangrene, gel 50 mg/ml + intraligamental injection 50 mg/ml, check-up after 8 days", "result": "no gangrenous odour, patient symptom-free"}, {"measurement": "clinical finding at check-up", "setting": "[3]; Patient A 3.7, tooth 14 apical periodontitis due to gangrene, gel 100 mg/ml + intraligamental injection 50 mg/ml, check-up after 7 days", "result": "patient symptom-free"}, {"measurement": "clinical finding at check-up", "setting": "[3]; Patient A 3.8, tooth 34 apical periodontitis due to gangrene, gel 50 mg/ml + intraligamental injection 50 mg/ml, check-up after 13 weeks", "result": "patient symptom-free, canal odour-free"}, {"measurement": "clinical finding at check-up", "setting": "[3]; Patient A 3.9, tooth 46 apical periodontitis, not gangrenous, gel 100 mg/ml + intraligamental injection 50 mg/ml, check-up after 7 days", "result": "patient symptom-free"}, {"measurement": "clinical finding at check-up", "setting": "[4]; Patient A 1.1, gel 25 mg/ml, after final filling, check-up after 3 weeks", "result": "tooth vital, patient symptom-free"}, {"measurement": "clinical finding at check-up", "setting": "[4]; Patient A 1.10, teeth 16, 17, 27, 36, 37, 46 occlusal caries, pellet inserts gel 50 mg/ml, check-up after 14 days", "result": "patient symptom-free, teeth vital"}, {"measurement": "clinical finding at check-up", "setting": "[4]; Patient A 1.1, tooth 24 carious defect, pellet insert gel 25 mg/ml, check-up after 4 days", "result": "patient was symptom-free"}, {"measurement": "clinical finding at check-up", "setting": "[4]; Patient A 1.2, gel 50 mg/ml, after final filling, check-up after 14 days", "result": "teeth vital, patient symptom-free"}, {"measurement": "clinical finding at check-up", "setting": "[4]; Patient A 1.2, teeth 11, 13 carious defects, pellet inserts gel 50 mg/ml, check-up after 1 week", "result": "teeth 11 and 13 symptom-free"}, {"measurement": "clinical finding at check-up", "setting": "[4]; Patient A 1.3, gel 25 mg/ml, repetition of insert, check-up after 3 days", "result": "tooth vital, patient symptom-free"}, {"measurement": "clinical finding at check-up", "setting": "[4]; Patient A 1.3, tooth 24 carious defect, pellet insert gel 25 mg/ml, check-up after one week", "result": "still slight discomfort of unknown origin"}, {"measurement": "clinical finding at check-up", "setting": "[4]; Patient A 1.4, major mesial carious defect, night pain, pellet inserts gel 50 mg/ml, check-up after 7 days", "result": "patient symptom-free, tooth vital"}, {"measurement": "clinical finding at check-up", "setting": "[4]; Patient A 1.5, tooth 13 weakly vital, night pain, pellet insert gel 50 mg/ml, check-up after 4 days", "result": "patient symptom-free, tooth vital"}, {"measurement": "clinical finding at check-up", "setting": "[4]; Patient A 1.6, gel 50 mg/ml, repetition of insert, check-up after 7 days", "result": "patient symptom-free, tooth vital"}, {"measurement": "clinical finding at check-up", "setting": "[4]; Patient A 1.6, tooth 36 reduced vitality, pellet insert gel 50 mg/ml, check-up after 6 days", "result": "still slight sensitivity to heat and cold"}, {"measurement": "clinical finding at check-up", "setting": "[4]; Patient A 1.7, tooth 44 reduced vitality, pellet inserts gel 50 mg/ml, check-up after 4 days", "result": "patient symptom-free"}, {"measurement": "clinical finding at check-up", "setting": "[4]; Patient A 1.8, tooth 36 reduced vitality, pellet insert gel 50 mg/ml, check-up after 3 weeks", "result": "patient symptom-free, tooth vital"}, {"measurement": "clinical finding at check-up", "setting": "[4]; Patient A 1.9, tooth 27, pellet insert gel 25 mg/ml, check-up after 7 days", "result": "patient symptom-free, tooth vital"}]}
